According to ChEMBL document CHEMBL3124838, “Discovery of 6-aryl-azabenzimidazoles that inhibit the TBK1/IKK-ε kinases” (Bioorg Med Chem Lett, 2014):

Legend:
[1] = target: RAC-beta serine/threonine-protein kinase (Homo sapiens) (UniProt P31751); test: Inhibition of human PKBbeta assessed as residual activity at 1 uM relative to control
[2] = target: Tyrosine-protein kinase receptor UFO (Homo sapiens) (UniProt P30530); test: Inhibition of human AXL assessed as residual activity at 1 uM relative to control
[3] = target: Phosphatidylinositol 4-phosphate 5-kinase type-1 alpha (Homo sapiens) (UniProt Q99755); test: Inhibition of human PIP5K1alpha assessed as residual activity at 1 uM relative to control
Sequence of Phosphatidylinositol 4-phosphate 5-kinase type-1 alpha (Homo sapiens) (Q99755 whole entry): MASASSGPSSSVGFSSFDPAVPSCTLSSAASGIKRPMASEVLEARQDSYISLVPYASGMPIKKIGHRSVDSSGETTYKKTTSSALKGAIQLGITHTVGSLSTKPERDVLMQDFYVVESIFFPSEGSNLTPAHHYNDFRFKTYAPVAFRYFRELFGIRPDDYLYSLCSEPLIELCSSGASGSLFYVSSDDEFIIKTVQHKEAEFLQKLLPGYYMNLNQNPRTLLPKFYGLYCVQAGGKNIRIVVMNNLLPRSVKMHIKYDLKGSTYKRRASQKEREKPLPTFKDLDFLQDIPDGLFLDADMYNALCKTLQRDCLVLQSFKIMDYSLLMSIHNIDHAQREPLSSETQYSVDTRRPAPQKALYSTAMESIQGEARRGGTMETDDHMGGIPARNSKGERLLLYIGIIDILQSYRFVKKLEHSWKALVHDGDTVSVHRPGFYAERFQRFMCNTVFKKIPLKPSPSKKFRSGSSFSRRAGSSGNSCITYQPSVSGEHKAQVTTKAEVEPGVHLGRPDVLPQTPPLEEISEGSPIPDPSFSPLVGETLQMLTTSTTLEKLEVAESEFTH

[4] = target: Proto-oncogene tyrosine-protein kinase Src (Homo sapiens) (UniProt P12931); test: Inhibition of human SRC (1 to 530) assessed as residual activity at 1 uM relative to control
Sequence of Proto-oncogene tyrosine-protein kinase Src (Homo sapiens) (P12931 2-536 limits assumed): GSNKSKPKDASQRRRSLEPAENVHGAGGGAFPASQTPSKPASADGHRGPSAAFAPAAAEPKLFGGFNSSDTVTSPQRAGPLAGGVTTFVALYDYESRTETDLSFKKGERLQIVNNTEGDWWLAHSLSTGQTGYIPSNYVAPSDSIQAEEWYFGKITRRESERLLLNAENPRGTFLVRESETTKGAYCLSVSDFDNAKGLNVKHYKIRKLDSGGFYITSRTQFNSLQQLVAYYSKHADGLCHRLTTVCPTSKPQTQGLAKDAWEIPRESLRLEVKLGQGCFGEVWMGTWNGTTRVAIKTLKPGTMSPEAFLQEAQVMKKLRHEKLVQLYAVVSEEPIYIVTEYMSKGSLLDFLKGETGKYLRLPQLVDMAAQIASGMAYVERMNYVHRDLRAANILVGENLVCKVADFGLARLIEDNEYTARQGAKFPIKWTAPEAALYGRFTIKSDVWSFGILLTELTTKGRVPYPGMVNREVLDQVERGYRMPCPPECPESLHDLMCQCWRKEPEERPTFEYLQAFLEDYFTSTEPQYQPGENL

[5] = target: Protein kinase C alpha type (Homo sapiens) (UniProt P17252); test: Inhibition of human PKCalpha assessed as residual activity at 1 uM relative to control
[6] = target: Serine/threonine-protein kinase mTOR (Homo sapiens) (UniProt P42345); test: Inhibition of human mTOR assessed as residual activity at 1 uM relative to control
[7] = target: Vascular endothelial growth factor receptor 1 (Homo sapiens) (UniProt P17948); test: Inhibition of human FLT1 assessed as residual activity at 1 uM relative to control
[8] = target: T1, Discoidin domain-containing receptor 2 (Homo sapiens) (UniProt Q16832); test: Inhibition of human DDR2 assessed as residual activity at 1 uM relative to control
T1 sequence (whole entry): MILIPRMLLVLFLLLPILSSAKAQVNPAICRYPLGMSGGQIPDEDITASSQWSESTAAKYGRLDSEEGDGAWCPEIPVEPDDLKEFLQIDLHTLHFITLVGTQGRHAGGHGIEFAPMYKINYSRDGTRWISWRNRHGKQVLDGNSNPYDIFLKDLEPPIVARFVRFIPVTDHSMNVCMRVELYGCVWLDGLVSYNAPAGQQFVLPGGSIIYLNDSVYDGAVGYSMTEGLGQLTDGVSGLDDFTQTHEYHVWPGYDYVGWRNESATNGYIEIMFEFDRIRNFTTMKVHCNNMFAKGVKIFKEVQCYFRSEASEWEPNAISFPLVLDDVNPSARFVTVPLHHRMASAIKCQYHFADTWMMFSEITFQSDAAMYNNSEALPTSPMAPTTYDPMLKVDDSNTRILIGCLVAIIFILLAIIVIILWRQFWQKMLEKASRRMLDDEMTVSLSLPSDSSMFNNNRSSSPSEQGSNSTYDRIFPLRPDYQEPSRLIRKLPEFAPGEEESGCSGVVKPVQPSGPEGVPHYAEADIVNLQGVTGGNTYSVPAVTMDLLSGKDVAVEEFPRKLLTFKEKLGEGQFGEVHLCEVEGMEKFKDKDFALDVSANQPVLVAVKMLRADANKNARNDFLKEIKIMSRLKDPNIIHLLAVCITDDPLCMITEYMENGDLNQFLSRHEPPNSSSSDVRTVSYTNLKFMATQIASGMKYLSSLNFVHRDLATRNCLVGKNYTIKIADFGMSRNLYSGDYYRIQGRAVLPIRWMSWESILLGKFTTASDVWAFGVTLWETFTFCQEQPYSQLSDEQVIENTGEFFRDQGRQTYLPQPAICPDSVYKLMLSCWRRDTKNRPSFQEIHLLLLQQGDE

[9] = target: PI3-kinase p110-delta/p85-alpha (Homo sapiens) (UniProt P27986+O00329); test: Inhibition of human PI3K p110delta/p85alpha assessed as residual activity at 1 uM relative to control; type: protein-complex assay
[10] = target: Receptor tyrosine-protein kinase erbB-4 (Homo sapiens) (UniProt Q15303); test: Inhibition of human ERBB4 assessed as residual activity at 1 uM relative to control
[11] = target: Tyrosine-protein kinase ABL1 (Homo sapiens) (UniProt P00519); test: Inhibition of human ABL assessed as residual activity at 1 uM relative to control
Sequence of Tyrosine-protein kinase ABL1 (Homo sapiens) (P00519 whole entry): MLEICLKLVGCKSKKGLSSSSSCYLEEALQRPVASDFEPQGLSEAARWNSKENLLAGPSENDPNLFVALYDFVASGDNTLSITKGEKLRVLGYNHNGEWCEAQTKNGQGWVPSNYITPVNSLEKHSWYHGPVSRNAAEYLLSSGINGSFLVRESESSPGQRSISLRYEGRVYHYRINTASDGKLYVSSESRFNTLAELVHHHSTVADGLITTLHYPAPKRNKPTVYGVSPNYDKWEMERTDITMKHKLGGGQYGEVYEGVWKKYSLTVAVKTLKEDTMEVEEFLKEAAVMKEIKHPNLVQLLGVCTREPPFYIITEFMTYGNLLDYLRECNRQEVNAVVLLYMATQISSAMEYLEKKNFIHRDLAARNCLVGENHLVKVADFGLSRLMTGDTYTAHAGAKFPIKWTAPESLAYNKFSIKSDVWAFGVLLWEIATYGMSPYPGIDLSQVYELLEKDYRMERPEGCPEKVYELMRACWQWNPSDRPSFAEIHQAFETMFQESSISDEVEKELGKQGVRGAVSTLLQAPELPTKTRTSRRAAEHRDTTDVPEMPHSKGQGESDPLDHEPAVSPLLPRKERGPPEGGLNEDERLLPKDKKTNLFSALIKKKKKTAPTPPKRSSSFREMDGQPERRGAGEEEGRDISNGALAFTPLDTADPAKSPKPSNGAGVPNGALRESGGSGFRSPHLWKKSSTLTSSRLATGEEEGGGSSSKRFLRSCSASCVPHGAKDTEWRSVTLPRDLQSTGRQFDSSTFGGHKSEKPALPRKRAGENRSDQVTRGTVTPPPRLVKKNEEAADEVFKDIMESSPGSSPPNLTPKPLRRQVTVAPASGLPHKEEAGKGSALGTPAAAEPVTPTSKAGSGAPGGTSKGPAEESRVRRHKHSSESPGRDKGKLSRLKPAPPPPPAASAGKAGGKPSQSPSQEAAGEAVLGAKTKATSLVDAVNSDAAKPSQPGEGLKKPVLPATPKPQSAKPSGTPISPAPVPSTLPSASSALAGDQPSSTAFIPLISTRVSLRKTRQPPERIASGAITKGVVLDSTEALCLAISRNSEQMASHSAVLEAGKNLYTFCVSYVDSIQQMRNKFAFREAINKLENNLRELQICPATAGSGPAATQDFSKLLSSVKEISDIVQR

[12] = target: ALK tyrosine kinase receptor (Homo sapiens) (UniProt Q9UM73); test: Inhibition of human ALK assessed as residual activity at 1 uM relative to control
Sequence of ALK tyrosine kinase receptor (Homo sapiens) (Q9UM73 19-1620 limits assumed): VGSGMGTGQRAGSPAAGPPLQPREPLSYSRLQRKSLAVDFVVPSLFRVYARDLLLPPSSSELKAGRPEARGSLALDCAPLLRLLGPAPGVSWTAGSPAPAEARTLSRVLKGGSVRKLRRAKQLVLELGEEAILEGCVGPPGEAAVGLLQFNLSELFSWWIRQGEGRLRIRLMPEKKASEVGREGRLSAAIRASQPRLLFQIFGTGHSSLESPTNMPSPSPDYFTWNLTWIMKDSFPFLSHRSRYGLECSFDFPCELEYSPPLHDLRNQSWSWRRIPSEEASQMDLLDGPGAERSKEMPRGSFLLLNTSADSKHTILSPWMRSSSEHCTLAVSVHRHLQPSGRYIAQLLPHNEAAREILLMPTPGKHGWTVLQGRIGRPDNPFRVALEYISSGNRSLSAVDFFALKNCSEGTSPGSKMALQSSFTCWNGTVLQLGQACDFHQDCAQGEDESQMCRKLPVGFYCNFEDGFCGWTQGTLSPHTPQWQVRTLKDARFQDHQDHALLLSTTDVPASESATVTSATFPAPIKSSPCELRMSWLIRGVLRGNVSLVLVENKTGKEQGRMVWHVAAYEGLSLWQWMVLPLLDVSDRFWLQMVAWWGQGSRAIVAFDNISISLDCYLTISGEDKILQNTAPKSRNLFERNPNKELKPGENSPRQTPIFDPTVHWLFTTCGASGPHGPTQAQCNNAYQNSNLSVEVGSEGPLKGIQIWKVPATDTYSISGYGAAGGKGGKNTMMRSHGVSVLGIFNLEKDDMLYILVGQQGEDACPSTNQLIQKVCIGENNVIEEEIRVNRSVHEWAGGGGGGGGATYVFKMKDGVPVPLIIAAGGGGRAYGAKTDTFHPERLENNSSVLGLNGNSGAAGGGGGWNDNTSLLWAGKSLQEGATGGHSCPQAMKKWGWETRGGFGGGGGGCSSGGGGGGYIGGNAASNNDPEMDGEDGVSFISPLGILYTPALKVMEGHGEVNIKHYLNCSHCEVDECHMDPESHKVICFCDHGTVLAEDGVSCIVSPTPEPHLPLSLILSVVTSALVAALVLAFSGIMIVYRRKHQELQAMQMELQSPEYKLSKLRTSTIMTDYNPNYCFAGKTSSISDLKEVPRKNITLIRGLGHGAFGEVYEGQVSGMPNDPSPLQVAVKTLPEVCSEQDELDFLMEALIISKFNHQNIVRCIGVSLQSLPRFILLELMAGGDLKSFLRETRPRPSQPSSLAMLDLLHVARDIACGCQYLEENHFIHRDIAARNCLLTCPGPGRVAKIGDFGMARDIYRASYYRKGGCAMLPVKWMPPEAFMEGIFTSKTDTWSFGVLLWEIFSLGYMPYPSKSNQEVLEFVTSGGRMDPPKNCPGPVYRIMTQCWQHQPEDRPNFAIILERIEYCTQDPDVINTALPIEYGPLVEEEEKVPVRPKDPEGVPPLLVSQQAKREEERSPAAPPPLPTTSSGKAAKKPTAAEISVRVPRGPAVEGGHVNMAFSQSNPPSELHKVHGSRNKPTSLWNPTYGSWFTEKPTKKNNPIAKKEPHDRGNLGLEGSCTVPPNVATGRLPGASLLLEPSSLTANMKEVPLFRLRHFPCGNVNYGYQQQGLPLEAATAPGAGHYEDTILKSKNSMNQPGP

[13] = target: T2, Serine/threonine-protein kinase TBK1 (Homo sapiens, UniProt Q9UHD2); test: Inhibition of TBK1 in HEK293 cells after 4.5 hrs by ISRE-luciferase reporter gene assay in presence of poly I:C; type: cell-based
T2 sequence (Q9UHD2 whole entry): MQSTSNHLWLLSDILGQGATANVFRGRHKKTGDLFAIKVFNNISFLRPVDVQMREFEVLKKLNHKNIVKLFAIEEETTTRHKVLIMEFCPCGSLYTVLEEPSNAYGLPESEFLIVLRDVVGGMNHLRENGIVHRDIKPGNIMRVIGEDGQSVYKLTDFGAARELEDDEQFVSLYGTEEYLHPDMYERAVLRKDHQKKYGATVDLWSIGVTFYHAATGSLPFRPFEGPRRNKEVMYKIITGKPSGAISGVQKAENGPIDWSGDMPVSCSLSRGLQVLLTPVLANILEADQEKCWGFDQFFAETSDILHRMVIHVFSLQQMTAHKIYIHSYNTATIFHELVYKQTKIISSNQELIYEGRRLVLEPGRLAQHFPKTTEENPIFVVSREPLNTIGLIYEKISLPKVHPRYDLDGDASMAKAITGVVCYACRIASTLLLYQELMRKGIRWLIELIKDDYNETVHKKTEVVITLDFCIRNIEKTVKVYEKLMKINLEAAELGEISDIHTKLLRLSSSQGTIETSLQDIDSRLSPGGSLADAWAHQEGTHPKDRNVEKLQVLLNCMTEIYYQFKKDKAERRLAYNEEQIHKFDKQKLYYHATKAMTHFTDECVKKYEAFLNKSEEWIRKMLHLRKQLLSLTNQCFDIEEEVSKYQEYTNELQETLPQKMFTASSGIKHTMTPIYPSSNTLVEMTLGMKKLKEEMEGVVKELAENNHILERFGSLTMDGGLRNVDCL

Sequence of RAC-beta serine/threonine-protein kinase (Homo sapiens) (P31751 whole entry): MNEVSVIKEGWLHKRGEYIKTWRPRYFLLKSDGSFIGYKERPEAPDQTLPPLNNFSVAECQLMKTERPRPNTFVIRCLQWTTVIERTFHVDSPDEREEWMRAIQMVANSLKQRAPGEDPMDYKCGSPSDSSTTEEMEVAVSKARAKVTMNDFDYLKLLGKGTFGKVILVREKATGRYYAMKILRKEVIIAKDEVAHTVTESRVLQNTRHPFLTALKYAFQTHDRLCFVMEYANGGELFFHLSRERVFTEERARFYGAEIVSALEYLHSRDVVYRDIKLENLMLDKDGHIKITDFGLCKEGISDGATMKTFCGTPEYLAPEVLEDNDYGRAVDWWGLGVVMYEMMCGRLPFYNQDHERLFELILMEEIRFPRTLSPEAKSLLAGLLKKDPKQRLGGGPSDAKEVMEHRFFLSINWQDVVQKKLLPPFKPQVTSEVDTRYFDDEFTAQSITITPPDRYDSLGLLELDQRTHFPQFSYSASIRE

Activity [1]	Activity [2]	Activity [3]	Activity [4]	Activity [5]	Activity [6]	Activity [7]	Activity [8]	Activity [9]	Activity [10]	Activity [11]	Activity [12]	IC50 [13]	Compound
98%	98%	99%	25%	101%	104%	10%	101%	94%	98%	-2%	99%	37 nM	COc1ccc(-c2nc3cc(-c4csc(C(=O)NCC(C)C)c4)cnc3[nH]2)cc1
93%	98%	99%	23%	89%	110%	22%	101%	95%	93%	10%	88%	78 nM	COc1ccc(-c2nc3cc(-c4csc(C(=O)NCCC(C)C)c4)cnc3[nH]2)cc1
90%	103%	95%	47%	91%	102%	24%	100%	91%	91%	8%	101%	30 nM	COc1ccc(-c2nc3cc(-c4csc(C(=O)NCC(C)(C)C)c4)cnc3[nH]2)cc1
